Data from PubChem BioAssay AID330 (DTP/NCI, 2004).
Toxic doses and inconclusive results are not listed. Numbered stars: 1 amine (or outer) side, 2 acyl side, 3 side chain; on linkers, the order of the positions; unused ones are H or OH. Bridge positions count the residues as written; N and C are the ends. Square brackets hold non-standard residues; d marks the D form. Peptide text beside a SMILES is read from it. ξ: configuration not given here. X1 = CC[C@@H](C)[C@H](N[*:1])[C@H](O)CC(=O)OC(C(=O)C(C)C(=O)[*:2])C(C)C; ξNMeY = CNC(Cc1ccc(O)cc1)C(=O)O; ξNMeL = CNC(CC(C)C)C(=O)O; ξL = CC(C)CC(N)C(=O)O; ξT = CC(O)C(N)C(=O)O; ξP = O=C(O)C1CCCN1

System: P388 leukemia ip, CD2F1 mice, survival T/C
Test: NCI In Vivo Anticancer Drug Screen. Data for tumor model P388 Leukemia (intraperitoneal) in CD2F1 (CDF1) mice
Settings: endpoint: median survival time, higher = longer survival
How it was run: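 Mice carrying the transplanted tumor received test compound or vehicle. Survival was recorded in each group, and the value is the treated-group measurement divided by that of the vehicle-treated control group.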

[1] = dose: 100.0 mg/kg/injection, schedule: Q04DX002 (ip), vehicle: saline with Tween-80
[2] = dose: 200.0 mg/kg/injection, schedule: Q04DX002 (ip), vehicle: saline with Tween-80
[3] = dose: 50.0 mg/kg/injection, schedule: Q01DX009 (ip), vehicle: saline with Tween-80
[4] = dose: 60.0 mg/kg/injection, schedule: Q01DX005 (ip), vehicle: saline with Tween-80
[5] = dose: 120.0 mg/kg/injection, schedule: Q01DX005 (ip), vehicle: saline with Tween-80
[6] = dose: 240.0 mg/kg/injection, schedule: Q01DX005 (ip), vehicle: saline with Tween-80

**Q.** Which results are given for `O=C(O)c1cc(Nc2ccnc3cc(Cl)ccc23)ccc1O`?
**A.** T/C [1]: 98 % of control; T/C [2]: 97 % of control; T/C (dose: 400.0 mg/kg/injection, schedule: Q04DX002 (ip), vehicle: saline with Tween-80): 98 % of control

**Q.** What does the source list for `O=C(CC(O)c1cccnc1)CC(O)c1cccnc1` (configuration not stated)?
**A.** T/C (dose: 60.0 mg/kg/injection, schedule: Q01DX005 (ip), vehicle: saline): 100 % of control; T/C (dose: 120.0 mg/kg/injection, schedule: Q01DX005 (ip), vehicle: saline): 114 % of control; T/C (dose: 240.0 mg/kg/injection, schedule: Q01DX005 (ip), vehicle: saline): 114 % of control

**Q.** For `CC(C)(C)C(=O)Oc1cc2c(cc1OC(=O)C(C)(C)C)C(c1ccccc1)CNCC2` (configuration not stated), which T/C (dose: 25.0 mg/kg/injection, schedule: Q01DX009 (ip), vehicle: saline with Tween-80) is on record?
**A.** 96 % of control

**Q.** And the T/C [3]?
**A.** 98 % of control

**Q.** Which results are given for `Nc1nnnn1NC(=O)c1ccccc1`?
**A.** T/C (dose: 100.0 mg/kg/injection, schedule: Q04DX003 (ip), vehicle: Klucel (hydroxypropylcellulose) (HPC)): 97 % of control; T/C (dose: 200.0 mg/kg/injection, schedule: Q04DX003 (ip), vehicle: Klucel (hydroxypropylcellulose) (HPC)): 102 % of control; T/C (dose: 400.0 mg/kg/injection, schedule: Q04DX003 (ip), vehicle: Klucel (hydroxypropylcellulose) (HPC)): 98 % of control

**Q.** Which results are given for `CC[C@@H](C)[C@@H]1NC(=O)C(NC(=O)C(CC(C)C)NC)C(C)OC(=O)C(Cc2ccc(OC)cc2)N(C)C(=O)C2CCCN2C(=O)C(CC(C)C)NC(=O)C(C)C(=O)C(C(C)C)OC(=O)C[C@H]1O` (some centres not stated) (H-[ξNMeL][ξT][X1][ξL][ξP][ξNMeY](Me); ester 2-C)?
**A.** T/C (dose: 0.06 mg/kg/injection, schedule: Q01DX005 (ip), vehicle: water): 104 % of control; T/C (dose: 0.13 mg/kg/injection, schedule: Q01DX005 (ip), vehicle: water): 112 % of control; T/C (dose: 0.25 mg/kg/injection, schedule: Q01DX005 (ip), vehicle: water): 114 % of control; T/C (dose: 0.5 mg/kg/injection, schedule: Q01DX005 (ip), vehicle: saline + alcohol): 113 % of control; T/C (dose: 1.0 mg/kg/injection, schedule: Q01DX005 (ip), vehicle: saline + alcohol): 124 % of control; T/C (dose: 2.0 mg/kg/injection, schedule: Q01DX005 (ip), vehicle: water): 150 % of control; T/C (dose: 0.25 micrograms/kg/injection, schedule: Q01DX005 (ip), vehicle: saline + alcohol): 106 % of control; T/C (dose: 0.5 micrograms/kg/injection, schedule: Q01DX005 (ip), vehicle: saline + alcohol): 110 % of control; T/C (dose: 1.0 micrograms/kg/injection, schedule: Q01DX005 (ip), vehicle: saline + alcohol): 96 % of control; T/C (dose: 2.0 micrograms/kg/injection, schedule: Q01DX005 (ip), vehicle: saline + alcohol): 100 % of control

**Q.** For `[CH3][Sn]([CH3])([Cl])[CH2]CC[CH2][Ge]([Cl])([Cl])[Cl]`, which T/C (dose: 0.78 mg/kg/injection, schedule: Q01DX009 (ip), vehicle: saline) is on record?
**A.** 114 % of control

**Q.** What about the T/C (dose: 1.56 mg/kg/injection, schedule: Q01DX009 (ip), vehicle: saline) of the same compound?
**A.** 119 % of control

**Q.** How did the T/C [3] turn out when `CC(C)Sc1ncnc2nc[nH]c12` was run?
**A.** 100 % of control

**Q.** And the T/C (dose: 100.0 mg/kg/injection, schedule: Q01DX009 (ip), vehicle: saline with Tween-80)?
**A.** 104 % of control

**Q.** What about the T/C (dose: 100.0 mg/kg/injection, schedule: Q04DX003 (ip), vehicle: saline with Tween-80) of the same compound?
**A.** 95 % of control

**Q.** And the T/C (dose: 200.0 mg/kg/injection, schedule: Q01DX009 (ip), vehicle: saline with Tween-80)?
**A.** 118 % of control

**Q.** What about the T/C (dose: 200.0 mg/kg/injection, schedule: Q04DX003 (ip), vehicle: saline with Tween-80) of the same compound?
**A.** 86 % of control

**Q.** Which T/C (dose: 50.0 mg/kg/injection, schedule: Q01DX005 (ip), vehicle: Klucel (hydroxypropylcellulose) (HPC)) does the source give for `CCOC(=O)CCC1=C(C)c2cc3[nH]c(cc4[nH]c(cc5nc(cc1n2)C(CCC(=O)OCC)=C5C)c(C1CC1C(=O)OCC)c4C)c(C1CC1C(=O)OCC)c3C` (configuration not stated) here?
**A.** 102 % of control

**Q.** And the T/C (dose: 100.0 mg/kg/injection, schedule: Q01DX005 (ip), vehicle: Klucel (hydroxypropylcellulose) (HPC))?
**A.** 100 % of control

**Q.** What about the T/C (dose: 200.0 mg/kg/injection, schedule: Q01DX005 (ip), vehicle: Klucel (hydroxypropylcellulose) (HPC)) of the same compound?
**A.** 101 % of control

**Q.** Which T/C (dose: 6.25 mg/kg/injection, schedule: Q01DX009 (ip), vehicle: saline) does the source give for `ON=C1c2cc(Cl)ccc2-c2ccc(Cl)cc21` here?
**A.** 100 % of control

**Q.** What about the T/C (dose: 12.5 mg/kg/injection, schedule: Q01DX009 (ip), vehicle: saline) of the same compound?
**A.** 97 % of control

**Q.** What about the T/C (dose: 25.0 mg/kg/injection, schedule: Q01DX009 (ip), vehicle: saline) of the same compound?
**A.** 94 % of control

**Q.** And the T/C (dose: 50.0 mg/kg/injection, schedule: Q01DX009 (ip), vehicle: saline)?
**A.** 90 % of control

**Q.** With `OC1N2CCSC2=NC1(c1ccccc1)c1ccccc1` (configuration not stated) as the compound, how does the T/C (dose: 18.75 mg/kg/injection, schedule: Q04DX003 (ip), vehicle: Klucel (hydroxypropylcellulose) (HPC)) read?
**A.** 107 % of control

**Q.** And the T/C (dose: 37.5 mg/kg/injection, schedule: Q04DX003 (ip), vehicle: Klucel (hydroxypropylcellulose) (HPC))?
**A.** 95 % of control

**Q.** What about the T/C (dose: 75.0 mg/kg/injection, schedule: Q04DX003 (ip), vehicle: Klucel (hydroxypropylcellulose) (HPC)) of the same compound?
**A.** 100 % of control

**Q.** What about the T/C (dose: 150.0 mg/kg/injection, schedule: Q04DX003 (ip), vehicle: Klucel (hydroxypropylcellulose) (HPC)) of the same compound?
**A.** 110 % of control

**Q.** And the T/C (dose: 300.0 mg/kg/injection, schedule: Q04DX003 (ip), vehicle: Klucel (hydroxypropylcellulose) (HPC))?
**A.** 93 % of control

**Q.** How did the T/C [1] turn out when `O=C(Cc1cc(-c2ccccc2)nc(=O)[nH]1)c1ccccc1` was run?
**A.** 97 % of control

**Q.** What about the T/C [2] of the same compound?
**A.** 93 % of control

**Q.** `COc1cc2oc(-c3ccc(O)cc3O)c(CC=C(C)C)c(=O)c2c(O)c1/C=C/C(C)C` was tested. Which T/C (dose: 1.56 mg/kg/injection, schedule: Q01DX009 (ip), vehicle: Klucel (hydroxypropylcellulose) (HPC)) did it give?
**A.** 107 % of control

**Q.** What about the T/C (dose: 3.12 mg/kg/injection, schedule: Q01DX009 (ip), vehicle: Klucel (hydroxypropylcellulose) (HPC)) of the same compound?
**A.** 105 % of control

**Q.** What about the T/C (dose: 6.25 mg/kg/injection, schedule: Q01DX009 (ip), vehicle: Klucel (hydroxypropylcellulose) (HPC)) of the same compound?
**A.** 100 % of control

**Q.** What about the T/C (dose: 12.5 mg/kg/injection, schedule: Q01DX009 (ip), vehicle: Klucel (hydroxypropylcellulose) (HPC)) of the same compound?
**A.** 98 % of control

**Q.** For `O=C1C=C(c2ccccc2)S(=O)(=O)c2ccc(O)cc21`, which T/C (dose: 50.0 mg/kg/injection, schedule: Q01DX005 (ip), vehicle: saline with Tween-80) is on record?
**A.** 121 % of control

**Q.** And the T/C (dose: 100.0 mg/kg/injection, schedule: Q01DX005 (ip), vehicle: saline with Tween-80)?
**A.** 110 % of control

**Q.** How did the T/C [4] turn out when `Clc1ccc(C2=NON(c3ncccn3)C3N=CC=CN23)cc1` (configuration not stated) was run?
**A.** 87 % of control

**Q.** And the T/C [5]?
**A.** 91 % of control

**Q.** And the T/C [6]?
**A.** 99 % of control

**Q.** With `CCCCN=C(N)N/N=C(\C)c1ccc2c(c1)Cc1ccccc1-2` as the compound, how does the T/C (dose: 25.0 mg/kg/injection, schedule: Q04DX002 (ip), vehicle: saline with Tween-80) read?
**A.** 104 % of control

**Q.** For `O=C(N/C(=C\c1ccc(Cl)cc1)c1nc2ccccc2s1)c1ccccc1`, which T/C [4] is on record?
**A.** 111 % of control

**Q.** What about the T/C [5] of the same compound?
**A.** 113 % of control

**Q.** And the T/C [6]?
**A.** 113 % of control

**Q.** With `O=S(=O)(O)SCCNCCc1ccccn1` as the compound, how does the T/C (dose: 12.5 mg/kg/injection, schedule: Q01DX005 (ip), vehicle: water) read?
**A.** 104 % of control

**Q.** And the T/C (dose: 25.0 mg/kg/injection, schedule: Q01DX005 (ip), vehicle: water)?
**A.** 109 % of control

**Q.** And the T/C (dose: 50.0 mg/kg/injection, schedule: Q01DX005 (ip), vehicle: water)?
**A.** 109 % of control

**Q.** What about the T/C (dose: 100.0 mg/kg/injection, schedule: Q01DX005 (ip), vehicle: water) of the same compound?
**A.** 107 % of control

**Q.** How did the T/C (dose: 100.0 mg/kg/injection, schedule: Q04DX003 (ip), vehicle: saline) turn out when `COc1ccc(C2NC(c3ccc(OC)cc3)C3CCCC2C3=O)cc1` (configuration not stated) was run?
**A.** 102 % of control

**Q.** What about the T/C (dose: 200.0 mg/kg/injection, schedule: Q04DX003 (ip), vehicle: saline) of the same compound?
**A.** 93 % of control

**Q.** And the T/C (dose: 400.0 mg/kg/injection, schedule: Q04DX003 (ip), vehicle: saline)?
**A.** 98 % of control
